# Assay results as given in US10604514B2, “6-(5-membered heteroaryl)isoquinolin-3-yl carboxamides and preparation and use thereof” (Samumed, LLC, priority 2017, dated 2020).
# pEC50: −log10 of the molar value. Read-outs that look alike come from different tables or passages of the source.
# Assays:
# [1] = system: Wnt activity (Sp5-Luc reporter in SW480 colon carcinoma cells); assay: Wnt activity screening assay (Sp5-Luc reporter gene assay); format: cell-based, human; settings: Homo sapiens; for pEC50: Sp5-Luc reporter, SW480 cells, 36 to 48 hours
# Source text: The screening assay for Wnt activity is described as follows. Reporter cell lines can be generated by stably transducing cancer cell lines (e.g., colon cancer) or primary cells (e.g., IEC-6 intestinal cells) with a lentiviral construct that includes a Wnt-responsive promoter driving expression of the firefly luciferase gene.
# SW480 colon carcinoma cells were transduced with a lentiviral vector expressing luciferase with a human Sp5 promoter consisting of a sequence of eight TCF/LEF binding sites. SW480 cells stably expressing the Sp5-Luc reporter gene and a hygromycin resistance gene were selected by treatment with 150 μg/mL of hygromycin for 7 days. These stably transduced SW480 cells were expanded in cell culture and used for all further screening activities. Each compound was dissolved in DMSO as a 10 mM stock and used to prepare compound source plates. Serial dilution (1:3, 10-point dose-response curves starting from 10 μM) and compound transfer was performed using the ECHO 550 (Labcyte, Sunnyvale, Calif.) into 384-well white solid bottom assay plates (Greiner Bio-One) with appropriate DMSO backfill for a final DMSO concentration of 0.1%. For Sp5-Luc reporter gene assays, the cells were plated at 4,000 cells/well in 384-well plates with a DMEM medium containing 1% fetal bovine serum, and 1% Penicillin-Streptomycin and incubated for 36 to 48 hours at 37° C. and 5% CO2. Following incubation, 15 μl of BriteLite Plus luminescence reagent (Perkin Elmer) was added to each well of the 384-well assay plates. The plates were placed on an orbital shaker for 2 min and then luminescence was quantified using the Envision (Perkin Elmer) plate reader. Readings were normalized to DMSO only treated cells, and normalized activities were utilized for EC50 calculations using the dose-response log (inhibitor) vs. response -variable slope (four parameters) nonlinear regression feature available in GraphPad Prism 5.0 (or Dotmatics).
# [2] = system: Tau phosphorylation at Ser396 (pSer396), SH-SY5Y cells; assay: Tau phosphorylation at Ser396 (pSer396) in SH-SY5Y cells, ELISA/western blot; format: cell-based, human;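 note: cell lysates probed for reduced Tau pSer396 via ELISA (colorimetric) or western blot (chemiluminescence), both with one shared pSer396 antibody, EC50 for lowering phosphorylation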
# [3] = system: SW480 colon carcinoma cells; assay: Cell viability assay (CellTiter-Glo) in SW480 cells; format: cell-based, human; settings: Homo sapiens, 96 h; cell viability, SW480 cells, four days, CellTiter-Glo;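 note: SW480 cells stably carrying an Sp5-luciferase TCF/LEF reporter, luminescent ATP signal as viability measure, DMSO-treated cells as control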
# [4] = system: LL29 cells (primary human fibroblasts derived from IPF patients), α-smooth muscle actin; assay: Inhibition of fibrotic process: αSMA in TGF-β1-treated primary human fibroblasts from IPF patients (LL29 cells); format: cell-based; settings: Homo sapiens, Fibroblast, 96 h; % αSMA-positive LL29 cells, TGF-β1 20 ng/mL, 4 days
# Source text: Representative compounds were screened using primary human fibroblasts (derived from IPF patients) treated with TGF-β1 to determine their ability to inhibit the fibrotic process.
# Primary human fibroblasts derived from IPF patients (LL29 cells) [^1Xiaoqiu Liu, et. al., “Fibrotic Lung Fibroblasts Show Blunted Inhibition by cAMP Due to Deficient cAMP Response Element-Binding Protein Phosphorylation”, Journal of Pharmacology and Experimental Therapeutics (2005), 315(2), 678-687; ^2Watts, K. L., et. al., “RhoA signaling modulates cyclin D1 expression in human lung fibroblasts; implications for idiopathic pulmonary fibrosis”, Respiratory Research (2006), 7(1), 88] were obtained from American Type Culture Collection (ATCC) and expanded in F12 medium supplemented with 15% Fetal Bovine Serum and 1% Penicillin/Streptomycin.
# Each compound was dissolved in DMSO as a 10 mM stock and used to prepare compound source plates. Serial dilution (1:2, 11-point dose-response curves from […] to 0.94 nM) and compound transfer was performed using the ECHO 550 (Labcyte, Sunnyvale, Calif.) into 384-well clear bottom assay plates (Greiner Bio-One) with appropriate DMSO backfill for a final DMSO concentration of 0.1%. LL29 cells were plated at 1,500 cells/well in 70 μL/well F12 medium supplemented with 1% Fetal Bovine Serum. TGF-β1 (Peprotech; 20 ng/mL) was added to the plates to induce fibrosis (ref. 1 and 2 above). Wells treated with TGF-31 and containing DMSO were used as positive control, and cells with only DMSO were negative control. Cells were incubated at 37° C. and 5% CO2 for 4 days. Following incubation for 4 days, SYTOX green nucleic acid stain (Life Technologies [Thermo Fisher Scientific]) was added to the wells at a final concentration of 1 μM and incubated at room temperature for 30 min. Cells were then fixed using 4% formaldehyde (Electron Microscopy Sciences), washed 3 times with PBS followed by blocking and permeabilization using 3% Bovine Serum Albumin (BSA; Sigma) and 0.3% Triton X-100 (Sigma) in PBS. Cells were then stained with antibody specific to α-smooth muscle actin (αSMA; Abcam) (ref. 1 and 2 above) in 3% Bovine Serum Albumin (BSA; Sigma) and 0.3% Triton X-100 (Sigma) in PBS, and incubated overnight at 4° C. Cells were then washed 3 times with PBS, followed by incubation with Alexa Flor-647 conjugated secondary antibody (Life Technologies [Thermo Fisher Scientific]) and DAPI in 3% Bovine Serum Albumin (BSA; Sigma) and 0.3% Triton X-100 (Sigma) in PBS at room temperature for 1 hour. Cells were then washed 3 times with PBS and plates were sealed for imaging. αSMA staining was imaged by excitation at 630 nm and emission at 665 nm and quantified using the Compartmental Analysis program on the CellInsight CX5 (Thermo Scientific). Dead or apoptotic cells were excluded from analysis based on positive SYTOX green staining. % of total cells positive for αSMA were counted in each well and normalized to the average of 11 wells treated with TGF-β1 on the same plate using Dotmatics' Studies Software.
# IL-6 = IL-6 inhibition in LPS-stimulated human peripheral blood mononuclear cells (HTRF); format: cell-based; settings: Homo sapiens, PBMC; IL-6, LPS-stimulated huPBMCs, HTRF
# Method: Fresh Normal PB MNC (Catalog # PB001, AllCells, Alameda, Calif.) were shipped overnight at 4° C. and resuspended in Roswell Park Memorial Institute (RPMI) 1640 Medium, with GlutaMAX Supplement (Catalog #61870127, ThermoFisher Scientific, Waltham, Mass.) supplemented with 1% Penicillin-Streptomycin (Catalog #151401633 ThermoFisher Scientific, Waltham, Mass.) and 1% fetal bovine serum (FBS) (Catalog #16140089, ThermoFisher Scientific, Waltham, Mass.) assay media.
# Fresh normal human peripheral blood mononuclear cells (huPBMCs) were resuspended in 1% FBS-RPMI assay media with 1% Penicillin-Streptomycin 1% to a cell concentration of 1×10e6 cells/mL. Each compound was dissolved in DMSO (Catalog # D8418-100 ml, Sigma-Aldrich, St. Louis, Mo.) as a 10 mM stock and used to prepare compound source plates. Serial dilution (1:3, 10-point dose-response curves starting from 10 μM) and compound transfer was performed using the ECHO 550 (Labcyte, Sunnyvale, Calif.) into 384-well white Proxiplate-Plus assay plates (Catalog #6008289, PerkinElmer, Shelton, Conn.) with appropriate DMSO backfill for a final DMSO concentration of 0.25%. huPBMCs were plated at 5000 cells/well in the 384-well Proxiplate-Plus assay plates and incubated at 37° C.-5% CO2 for 2 hours. 50 ng/mL of Lipopolysaccharides from Escherichia coli 0111:B4 (Catalog # L5293-2 ML, Sigma-Aldrich, St. Louis, Mo.) was added after 2 hours and cells were incubated for another 22 hours at 37° C.-5% CO2. After 22 hour incubation, a mixture of anti-IL6 XL665 and anti-IL-6 Cryptate diluted in reconstitution buffer (Catalog #62IL6PEC, Cisbio Inc., Bedford, Mass.) was added to each well. Following incubation for 3 hours at room temperature, Homogeneous Time-Resolved Fluorescence (HTRF) was measured using the Envision (Perkin Elmer, Shelton, Conn.) at 665 nm and […]. The ratio of fluorescence at 665 nm to 620 nm was used as a readout for IL-6 quantification. All samples were processed in duplicate. Readings were normalized to DMSO treated cells and normalized activities were utilized for EC50 calculations. EC50 was determined using software generated by Dotmatics Limited (Windhill Bishops Stortford Herts, UK) using the Levenberg-Marquardt 4 parameter fitting procedure with finite different gradients.
# [5] = Homo sapiens, SH-SY5Y cells, overnight (16-18 h), read-out: pSer396 Tau EC50
Compound,pEC50 [1],"pEC50 [2, 5]",pEC50 [3],pEC50 [4],pEC50 (IL-6),"inhibition at 10 µM ([1]; SW480, read-out: percent inhibition at 10 μM) [%]","pEC50 ([2]; Homo sapiens, SH-SY5Y, read-out: EC50 in the Tau assay)","pEC50 ([2]; control DYRK1A inhibitors, printed '>10 M' (μ probably lost), read-out: EC50 in the Tau assay)"
"[2H]c1c(NC(=O)C2CCN(CC(C)C)CC2)ncc2ccc(-c3cnn(C)c3)cc12 [Compound 6, 1-Isobutyl-N-(6-(1-methyl-1H-pyrazol-4-yl)isoquinolin-3-yl-4-d)piperidine-4-carboxamide]",6.09,6.99,5.91,6.88,6.01,,,
"[2H]c1nc(NC(=O)c2ccnc(N3CCN(CC)CC3)c2)cc2cc(-c3cnn(C)c3)ccc12 [Compound 8, 2-(4-Ethylpiperazin-1-yl)-N-(6-(1-methyl-1H-pyrazol-4-yl)isoquinolin-3-yl-1-d)isonicotinamide]",7.55,< 5.00,7.00,7.02,6.03,,,
"[2H]c1nc(NC(=O)c2ccnc(N3CCN(C(C)C)CC3)c2)cc2cc(-c3cnn(C)c3)ccc12 [Compound 9, 2-(4-Isopropylpiperazin-1-yl)-N-(6-(1-methyl-1H-pyrazol-4-yl)isoquinolin-3-yl-1-d)isonicotinamide]",7.44,< 5.00,6.97,6.80,5.73,,,
"[2H]C1([2H])CCC([2H])([2H])N1c1cc(C(=O)Nc2cc3cc(-c4cnc(C)n4C)ccc3cn2)ccn1 [Compound 73, N-(6-(1,2-Dimethyl-1H-imidazol-5-yl)isoquinolin-3-yl)-2-(pyrrolidin-1-yl-2,2,5,5-d4)isonicotinamide]",5.69,< 5.00,,5.77,5.68,,,
"[2H]C1([2H])OC([2H])([2H])C([2H])([2H])N(c2cc(C(=O)Nc3cc4cc(-c5cnc(C)n5C)ccc4cn3)ccn2)C1([2H])[2H] [Compound 74, N-(6-(1,2-Dimethyl-1H-imidazol-5-yl)isoquinolin-3-yl)-2-(morpholino-d8) isonicotinamide]",< 5.00,< 5.00,6.32,5.90,5.95,30.5,,
"[2H]C1([2H])N(c2cc(C(=O)Nc3cc4cc(-c5cncn5C)ccc4cn3)ccn2)C([2H])([2H])C([2H])([2H])C([2H])([2H])C1([2H])[2H] [Compound 75, N-(6-(1-Methyl-1H-imidazol-5-yl)isoquinolin-3-yl)-2-(piperidin-1-yl-d10) isonicotinamide]",5.46,< 5.00,6.35,6.35,6.07,,,
"[2H]C1([2H])OC([2H])([2H])C([2H])([2H])N(c2cc(C(=O)Nc3cc4cc(-c5cncn5C)ccc4cn3)ccn2)C1([2H])[2H] [Compound 76, N-(6-(1-Methyl-1H-imidazol-5-yl)isoquinolin-3-yl)-2-(morpholino-d8) isonicotinamide]",5.47,< 5.00,6.34,6.21,6.03,,,
"[2H]C1([2H])N(c2cc(C(=O)Nc3cc4cc(-c5cnc(C)n5C)ccc4cn3)ccn2)C([2H])([2H])C([2H])([2H])C1([2H])[2H] [Compound 77, N-(6-(1,2-Dimethyl-1H-imidazol-5-yl)isoquinolin-3-yl)-2-(pyrrolidin-1-yl-d8)isonicotinamide]",5.48,< 5.00,,5.67,5.71,,,
"[2H]C1([2H])N(c2cc(C(=O)Nc3cc4cc(-c5cncn5C)ccc4cn3)ccn2)C([2H])([2H])C([2H])([2H])C1([2H])[2H] [Compound 78, N-(6-(1-Methyl-1H-imidazol-5-yl)isoquinolin-3-yl)-2-(pyrrolidin-1-yl-d8) isonicotinamide]",5.43,< 5.00,6.33,6.28,5.98,,,
"[2H]C1([2H])CCC([2H])([2H])N1c1cc(C(=O)Nc2cc3cc(-c4cncn4C)ccc3cn2)ccn1 [Compound 79, N-(6-(1-methyl-1H-imidazol-5-yl)isoquinolin-3-yl)-2-(pyrrolidin-1-yl-2,2,5,5-d4)isonicotinamide]",5.39,< 5.00,6.33,6.24,5.87,,,
Cc1nnc(-c2cc(F)c3cnc(NC(=O)C4CCC(NCC(F)F)CC4)cc3c2)s1 (stereo not shown) [Compound 204],,< 5.00,,,,,,
"COc1ccc2c(c1)[nH]c1c(C)nccc12 [Harmine, reference compound]",,,,,,,< 5.00,
"CCN1/C(=C/C(C)=O)Sc2ccc(O)cc21 [Indy, reference compound]",,,,,,,,< 5.00
